Patent publication US20250361485A1, “MODIFIED CD4+ T CELLS EXPRESSING IL-37 AND METHODS OF USE THEREOF” (The Regents of the University of Colorado, A Body Corporate, priority 2022, published 2025)

Tests used:
[1] = target: p-SMAD3 S208 (SMAD3 phosphorylated at Ser208), human, endogenous in human Treg cells (human) (UniProt P84022); assay: flow cytometry read-out in human Treg cells with or without 50 uM Ac-YVAD-CMK (FIG. 15D), presumably flow-based PLA
caspase-1 = assay: FAM-FLICA caspase-1 activation assay in human Treg cells; assay type: cell-based
Description: Purified primary human CD4+ T cells were used for siRNA knockdown of RUNX1, RPTOR, IL37, CREB1, CHK1, NLRP2, NLRP3, NLRP4, ASC, and NLRC4, and CD4+CD25+CD127^dim T cells for siRNA knockdown of FOXP3 and IL37. Cells were purified from healthy donor PBMCs as described above and then placed in culture in complete RPMI 1640 for at least 2 h prior to siRNA transfection via nucleofection using the Amaxa P3 Primary Cell 4D-Nucleofector X Kit L (Lonza) following the manufacturer's instructions. […] Knockdowns were confirmed 24 hours after nucleofection by qRT-PCR or 48 hours later by western blot, and the relative density of the protein bands was determined using FIJI. […]
Purified lymphocytes from either humans or mice were washed with FACS buffer (5% BSA (Sigma-Aldrich) and 1×PBS), and then prepared for surface or intracellular staining, as described (Osborne and Wetzel, 2012). For surface staining, 1 μg or the manufacturer-recommended amounts of fluorescently conjugated antibody specific to the surface marker to be visualized was added to 1×10^6 cells resuspended in 100 μl of FACS buffer for 30 min at 4° C., then washed 2× with FACS buffer prior to being either analyzed or further processed. […] For measuring proliferation, cells were stained with 5-μM CFSE (Molecular Probes, Eugene, OR) prior to cell culture and analyzed using flow cytometry. […]

PAK1/2/3 = PAK1/2/3 inhibition in unstimulated human Treg cells; assay type: cell-based; details: 1 μM
Description: Purified lymphocytes from either humans or mice were washed with FACS buffer (5% BSA (Sigma-Aldrich) and 1×PBS), and then prepared for surface or intracellular staining, as described (Osborne and Wetzel, 2012). For surface staining, 1 μg or the manufacturer-recommended amounts of fluorescently conjugated antibody specific to the surface marker to be visualized was added to 1×10^6 cells resuspended in 100 μl of FACS buffer for 30 min at 4° C., then washed 2× with FACS buffer prior to being either analyzed or further processed. For intracellular cytokine staining (ICS), the FOXP3 Cytoperm/Cytofix staining kit (BD Pharmingen, San Diego, CA) was used after cells were stimulated for 24 h on 1 μg/ml anti-CD3-coated plates with soluble 1 μg/ml anti-CD28 antibody or anti-CD3/CD28 conjugated Dynabeads™ (Gibco, Thermo Fisher). For measuring proliferation, cells were stained with 5-μM CFSE (Molecular Probes, Eugene, OR) prior to cell culture and analyzed using flow cytometry. Flow-based measurement of caspase-1 activation was done using the FAM-FLICA® Caspase-1 Assay kit #98 following the manufacturer's instructions (ImmunoChemistry Tech, Bloomington, MN). For flow cytometry experiments using the caspase-1 inhibitor Ac-YVAD-CMK, cells were cultured with 50 μM Ac-YVAD-CMK for 2 h prior to stimulation, 24 h (mouse), and 48 h (human), with anti-CD3/CD28 conjugated Dynabeads™ and then prepared for flow cytometry analyses. For experiments using the PAK1/2/3 inhibitor FRAX597, cells were cultured with 1 μM FRAX597 for either 24 h (flow and qRT-PCR) or 48 h (immunoblotting) and then prepared for analysis. For flow cytometry or qRT-PCR experiments using IL-6 treatment, human and mouse cells were cultured with 20 ng/ml IL-6 (Peprotech) and anti-CD3/CD28 conjugated Dynabeads™ and then prepared for analyses. […] All acquisitions were performed on a Galios® or Galios® 561 cytometer equipped with Kaluza software (Beckman-Coulter, Indianapolis, IN), and all data were analyzed with FlowJo_V10 software (Tree Star, Ashland, OR).

UniProt P84022, sequence (P84022 2-425 limits assumed): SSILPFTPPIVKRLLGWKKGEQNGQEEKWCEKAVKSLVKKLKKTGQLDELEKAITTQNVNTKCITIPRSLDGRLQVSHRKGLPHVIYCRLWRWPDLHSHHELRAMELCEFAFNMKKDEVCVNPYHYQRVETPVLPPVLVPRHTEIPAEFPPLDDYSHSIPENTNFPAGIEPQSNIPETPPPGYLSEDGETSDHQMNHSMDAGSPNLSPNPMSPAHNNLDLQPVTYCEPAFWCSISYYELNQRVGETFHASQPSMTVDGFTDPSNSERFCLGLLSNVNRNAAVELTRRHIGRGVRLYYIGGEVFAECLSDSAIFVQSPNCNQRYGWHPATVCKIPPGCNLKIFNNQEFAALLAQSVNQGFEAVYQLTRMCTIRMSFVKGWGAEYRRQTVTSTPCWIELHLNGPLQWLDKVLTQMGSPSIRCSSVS

## Interleukin-37 (IL-37), human, endogenous in human Treg cells (from UniProt Q9NZH6 1-218) (ligand)
[1]
  decrease of the interaction after caspase-1 inhibitor Ac-YVAD-CMK, against untreated Treg cells: 36.5%

## CCn1c(=O)c(-c2ccc(-c3cncs3)cc2Cl)cc2cnc(Nc3ccc(N4CCN(C)CC4)cc3)nc21 [FRAX 597]
caspase-1; human Treg cells, 1 μM, 24 hrs
  reduction in caspase-1 activation: 44%
PAK1/2/3; 24 hrs
  IL-37 localization: shift in IL-37 localization from the nucleus to the cytoplasm
  p-NLRC4 (S533), fold decrease: 1.9 fold
PAK1/2/3; 24 hrs (gene), 48 hrs (protein)
  FOXP3 gene and protein expression: decrease

## ASC: siRNA against ASC, SEQ ID NO: 1-2 (chain 1 GCUCUUCAGUUUCACACCAUU; chain 2 UGGUGUGAAACUGAAGAGCUU; chemistry not given here)
caspase-1; primary human Treg cells, siRNA silencing
  caspase-1 activation compared to siRNA scramble control: −20.5%
